In ChEMBL document CHEMBL1671651, “Azithromycin in Pseudomonas aeruginosa biofilms: bactericidal activity and selection of nfxB mutants” (2009):
Values after ≈ are worked out from the molar mass of the structure shown.

Assays:
Type in all cases: functional
[1] = system: Pseudomonas aeruginosa; assay: Antimicrobial activity against mutS::lox-deficient Pseudomonas aeruginosa PAOMSA biofilm harboring nfxB T86C mutant gene selected at 4 ug/ml of azithromycin after 4 passages by Etest method
[2] = system: Pseudomonas aeruginosa; assay: Antimicrobial activity against mutS::lox,nfxB gene-deficient Pseudomonas aeruginosa PAOMSNB biofilm by Etest method
[3] = system: Pseudomonas aeruginosa; assay: Antimicrobial activity against mutS::lox-deficient Pseudomonas aeruginosa PAOMSB biofilm harboring nfxB T77C mutant gene selected at 4 ug/ml of azithromycin after 6 passages by Etest method
[4] = system: Pseudomonas aeruginosa; assay: Antimicrobial activity against Pseudomonas aeruginosa PAO1 A biofilm harboring nfxB T248C mutant gene selected at 4 ug/ml of azithromycin after 4 passages by Etest method
[5] = system: Pseudomonas aeruginosa; assay: Antimicrobial activity against mucA::lox, mutS::lox-deficient Pseudomonas aeruginosa PAOMSAA biofilm harboring nfxB C89T mutant gene selected at 0.5 ug/ml of azithromycin after 3 passages by Etest method
[6] = system: Pseudomonas aeruginosa; assay: Antimicrobial activity against mucA::lox-deficient Pseudomonas aeruginosa PAOMAB biofilm harboring nfxB G125T mutant gene selected at 0.5 ug/ml of azithromycin after 1 passages by Etest method
[7] = system: Pseudomonas aeruginosa; assay: Antimicrobial activity against mutS::lox-deficient Pseudomonas aeruginosa PAOMSB biofilm harboring nfxB T41C mutant gene selected at 4 ug/ml of azithromycin after 3 passages by Etest method
[8] = system: Pseudomonas aeruginosa; assay: Antimicrobial activity against mucA::lox, mutS::lox-deficient Pseudomonas aeruginosa PAOMSAB biofilm harboring nfxB T544C mutant gene selected at 4 ug/ml of azithromycin after 1 passages by Etest method
[9] = system: Pseudomonas aeruginosa; assay: Antimicrobial activity against mutS::lox-deficient Pseudomonas aeruginosa PAOMSB biofilm harboring nfxB C116T mutant gene selected at 4 ug/ml of azithromycin after 5 passages by Etest method
[10] = system: Pseudomonas aeruginosa; assay: Antimicrobial activity against mutS::lox-deficient Pseudomonas aeruginosa PAOMSA biofilm harboring nfxB T533C mutant gene selected at 4 ug/ml of azithromycin after 2 passages by Etest method
[11] = system: Pseudomonas aeruginosa; assay: Antimicrobial activity against mucA::lox, mutS::lox-deficient Pseudomonas aeruginosa PAOMSAB biofilm harboring nfxB C25T mutant gene selected at 1 ug/ml of azithromycin after 2 passages by Etest method
[12] = system: Pseudomonas aeruginosa; assay: Antimicrobial activity against mucA::lox-deficient Pseudomonas aeruginosa PAOMA biofilm by Etest method
[13] = system: Pseudomonas aeruginosa; assay: Antimicrobial activity against nfxB gene-deficient Pseudomonas aeruginosa PAONB biofilm by Etest method
[14] = system: Pseudomonas aeruginosa; assay: Antimicrobial activity against mucA::lox, mutS::lox-deficient Pseudomonas aeruginosa PAOMSAA biofilm harboring nfxB C89T mutant gene selected at 4 ug/ml of azithromycin after 6 passages by Etest method
[15] = system: Pseudomonas aeruginosa; assay: Antimicrobial activity against mutS::lox-deficient Pseudomonas aeruginosa PAOMSA biofilm harboring nfxB T86C mutant gene selected at 4 ug/ml of azithromycin after 3 passages by Etest method
[16] = system: Pseudomonas aeruginosa; assay: Antimicrobial activity against mutS::lox-deficient Pseudomonas aeruginosa PAOMSB biofilm harboring nfxB T562C mutant gene selected at 4 ug/ml of azithromycin after 4 passages by Etest method
[17] = system: Pseudomonas aeruginosa; assay: Antimicrobial activity against mutS::lox,mexD::lox-deficient Pseudomonas aeruginosa PAOMSMxD biofilm by Etest method
[18] = system: Pseudomonas aeruginosa; assay: Antimicrobial activity against mexD::lox-deficient Pseudomonas aeruginosa PAOMxD biofilm by Etest method
[19] = system: Pseudomonas aeruginosa; assay: Antimicrobial activity against mucA::lox, mutS::lox-deficient Pseudomonas aeruginosa PAOMSA biofilm by Etest method
[20] = system: Pseudomonas aeruginosa; assay: Antimicrobial activity against mucA::lox, mutS::lox-deficient Pseudomonas aeruginosa PAOMSAA biofilm harboring nfxB T86C mutant gene selected at 4 ug/ml of azithromycin after 2 passages by Etest method
[21] = system: Pseudomonas aeruginosa; assay: Antimicrobial activity against mutS::lox-deficient Pseudomonas aeruginosa PAOMSA biofilm harboring nfxB G539A mutant gene selected at 4 ug/ml of azithromycin after 6 passages by Etest method
[22] = system: Pseudomonas aeruginosa; assay: Antimicrobial activity against mucA::lox-deficient Pseudomonas aeruginosa PAOMAA biofilm harboring nfxB C25T mutant gene selected at 1 ug/ml of azithromycin after 2 passages by Etest method
[23] = system: Pseudomonas aeruginosa; assay: Antimicrobial activity against mucA::lox, mutS::lox-deficient Pseudomonas aeruginosa PAOMSAB biofilm harboring nfxB T86C mutant gene selected at 4 ug/ml of azithromycin after 2 passages by Etest method
[24] = system: Pseudomonas aeruginosa; assay: Antimicrobial activity against mutS::lox-deficient Pseudomonas aeruginosa PAOMSA biofilm harboring nfxB C116T mutant gene selected at 1 ug/ml of azithromycin after 1 passages by Etest method
[25] = system: Pseudomonas aeruginosa; assay: Antimicrobial activity against mutS::lox-deficient Pseudomonas aeruginosa PAOMSB biofilm harboring nfxB T380C mutant gene selected at 0.5 ug/ml of azithromycin after 2 passages by Etest method
[26] = system: Pseudomonas aeruginosa; assay: Antimicrobial activity against mucA::lox, mutS::lox-deficient Pseudomonas aeruginosa PAOMSAA biofilm harboring nfxB T77C mutant gene selected at 4 ug/ml of azithromycin after 3 passages by Etest method
[27] = system: Pseudomonas aeruginosa; assay: Antimicrobial activity against Pseudomonas aeruginosa PAO1 biofilm by Etest method
[28] = system: Pseudomonas aeruginosa; assay: Antimicrobial activity against mutS::lox-deficient Pseudomonas aeruginosa PAOMS biofilm by Etest method
[29] = system: Pseudomonas aeruginosa; assay: Antimicrobial activity against mutS::lox-deficient Pseudomonas aeruginosa PAOMSB biofilm harboring deletion od C534 in nfxB mutant gene selected at 4 ug/ml of azithromycin after 2 passages by Etest method
[30] = system: Pseudomonas aeruginosa; assay: Antimicrobial activity against mucA::lox, mutS::lox-deficient Pseudomonas aeruginosa PAOMSAB biofilm harboring nfxB C89T mutant gene selected at 4 ug/ml of azithromycin after 6 passages by Etest method
[31] = system: Pseudomonas aeruginosa; assay: Antimicrobial activity against Pseudomonas aeruginosa PAO1 A biofilm harboring duplication mutation at nucleotide 333 in nfxB gene selected at 0.5 ug/ml of azithromycin by Etest method
[32] = system: Pseudomonas aeruginosa; assay: Antimicrobial activity against Pseudomonas aeruginosa PAO1 A biofilm harboring deletion mutation at nucleotide 231-244 in nfxB gene selected at 1 ug/ml of azithromycin after 4 passages by Etest method
[33] = system: Pseudomonas aeruginosa; assay: Antimicrobial activity against mutS::lox-deficient Pseudomonas aeruginosa PAOMSA biofilm harboring nfxB G461A mutant gene selected at 4 ug/ml of azithromycin after 5 passages by Etest method

| Molecule | MIC [1] | MIC [2] | MIC [3] | MIC [4] | MIC [5] | MIC [6] | MIC [7] | MIC [8] | MIC [9] | MIC [10] | MIC [11] | MIC [12] | MIC [13] | MIC [14] | MIC [15] | MIC [16] | MIC [17] | MIC [18] | MIC [19] | MIC [20] | further results |
| --- | --- | --- | --- | --- | --- | --- | --- | --- | --- | --- | --- | --- | --- | --- | --- | --- | --- | --- | --- | --- | --- |
| NC[C@H]1O[C@H](O[C@H]2[C@H](O)[C@@H](O[C@H]3O[C@H](CO)[C@@H](O)[C@H](N)[C@H]3O)[C@H](N)C[C@@H]2N)[C@H](N)C[C@@H]1O [TOBRAMYCIN] | 0.5 µg/mL | 0.5 µg/mL (≈ 1.07 µM) | 1 µg/mL | 0.25 µg/mL | 0.75 µg/mL | 0.38 µg/mL | 1 µg/mL | 1 µg/mL | 0.5 µg/mL | 0.75 µg/mL | 0.38 µg/mL | 1.5 µg/mL (≈ 3.21 µM) | 0.25 µg/mL (≈ 0.535 µM) | 0.5 µg/mL | 0.5 µg/mL | 1.5 µg/mL | 2 µg/mL (≈ 4.28 µM) | 1.5 µg/mL (≈ 3.21 µM) | 1.5 µg/mL (≈ 3.21 µM) | 0.5 µg/mL | MIC [21]: 1 µg/mL; MIC [22]: 0.38 µg/mL; MIC [23]: 0.5 µg/mL; MIC [24]: 1 µg/mL; MIC [25]: 1 µg/mL; MIC [26]: 1.5 µg/mL; MIC [27]: 1.5 µg/mL (≈ 3.21 µM); MIC [28]: 1.5 µg/mL (≈ 3.21 µM); MIC [29]: 1 µg/mL; MIC [30]: 1 µg/mL; MIC [31]: 0.19 µg/mL; MIC [32]: 0.38 µg/mL; MIC [33]: 1.5 µg/mL |
| COLISTIN | 3 µg/mL | 1.5 µg/mL | 0.5 µg/mL | 1.5 µg/mL | 1 µg/mL | 1 µg/mL | 2 µg/mL | 3 µg/mL | 1.5 µg/mL | 2 µg/mL | 2 µg/mL | 2 µg/mL | 1.5 µg/mL | 2 µg/mL | 2 µg/mL | 3 µg/mL | 2 µg/mL | 2 µg/mL | 2 µg/mL | 3 µg/mL | MIC [21]: 1.5 µg/mL; MIC [22]: 1 µg/mL; MIC [23]: 2 µg/mL; MIC [24]: 2 µg/mL; MIC [25]: 2 µg/mL; MIC [26]: 2 µg/mL; MIC [27]: 2 µg/mL; MIC [28]: 2 µg/mL; MIC [29]: 2 µg/mL; MIC [30]: 1 µg/mL; MIC [31]: 1.5 µg/mL; MIC [32]: 2 µg/mL; MIC [33]: 2 µg/mL |
